# Test results from patent publication US4020076A, “Novel phosphoryloxy-thiazoles” (priority 1974, dated 1977).
# Like-named read-outs stand apart in the source and are kept apart here.
# Key:
# Assay type in all cases: in vivo
# Drosophila melanogaster = test: Vapor activity against Drosophila melanogaster; conditions: inhaled or nasal, read-out: percentage of mortality
# Description: a. Activity against Drosophila melanogaster
# This test measures the vapor activity of the compounds and the less than 48 hours old insects were placed in a Petri dish with a 10 cm diameter connected by a tergal screen to a crystallizer of the same diameter in which the test compound in acetone solution is placed. The said solution is evaporated after the insects have been placed and 3 tests with 25 insects were run for each concentration. The results are expressed in Table I as a percentage of mortality after 1, 2, 4 and 6 hours.
# Musca domestica larvae = test: Contact-ingestion test against Musca domestica larvae; conditions: read-out: percent of mortality
# Description: g. Activity against Musca domestica larvae
# This contact-ingestion test consisted of placing 2 ml of an acetone solution of different concentrations of the test product on 1 g of bran placed in a watch glass and the solvent was evaporated. The treated bran was placed in a plastic dish and was admixed with 2 ml of milk. 20 3 to 4 day old larvae of Musca domestica were added to the bran and were held at 20° C and 30% relative humidity and 3 tests were conducted for each concentration.
# [1] = system: Ditylenchus Myceliophagus; test: Acaricide activity, Ditylenchus Myceliophagus; conditions: 24 h, read-out: Percent of mortality after 24 hours
# Description: In an apparatus containing 10 ml of an aqueous solution of the test product, 0.5 ml of water containing about 2000 acariens of Ditylenchus Myceliophagus were added thereto and the percent of mortality was determined by a binocular magnifying glass after 24 hours.
# Musca domestica = test: Topical application activity against Musca domestica; conditions: read-out: percent of mortality
# Description: d. Activity against Musca domestica
# This topical application test consisted of placing a microliter of an acetone solution of the test product on the dorsal thorax of Musca domestica after having been put to sleep with ether. The insects were held at 20° C and 50% relative humidity and were fed milk and water.
# Blattella germanica = test: Topical application activity against Blattella germanica; conditions: read-out: percent of mortality
# Description: b. Activity against Blattella germanica
# This test was a topical application in which adult male Blattella germanica received 2 microliters of an acetone solution of the test products between the second and third pair of paws. After this treatment, the test insects were held in a dim light at 20° C and were fed. The results expressed as percent of mortality in Table II were read 24 and 48 hours and 5 days after the treatment.
# Sitophilus granarius = test: Topical application test against Sitophilus granarius; conditions: read-out: percent mortality
# Description: c. Test against Sitophilus granarius
# This topical application test comprised preparing the test compounds in acetone solution at concentrations of 5000, 500 and 50 mg of the active compound per liter and 0.2 μl of the solutions were applied to the ventral thorax of 50 Sitophilus granarius for each concentration.
# Spodoptera littoralis = test: Ingestion test against Spodoptera littoralis caterpillars; conditions: po, read-out: percent of mortality
# Description: e. Activity against Spodoptera littoralis
# This test was effected with Spodoptera littoralis caterpillars 1 to 1.5 cm long and an average of 10 days old. In this ingestion test, 4 ml of an acetone solution of the test products was placed on lettuce rings with an 8 mm diameter which were placed in closed plastic dishes with a 5 cm diameter. 15 caterpillars were placed in each dish and were held at 20° C and 50% relative humidity and were fed when the insects had eaten the treated lettuce ring.
structure (smiles),measurement,setting,value
"CCOc1nc(OP(=S)(OCC)OCC)c(C#N)s1 [A, 2-ethoxy-4-diethoxythiophosphoryloxy-5-cyano-thiazole]",mortality at 5 ppm,Drosophila melanogaster; 1 H,99%
same,mortality at 50 ppm,Drosophila melanogaster; 1 H,100%
same,mortality at 500 ppm,Drosophila melanogaster; 1 H,100%
same,mortality at 5 ppm,Drosophila melanogaster; 4 H,100%
same,mortality at 50 ppm,Drosophila melanogaster; 4 H,100%
same,mortality at 500 ppm,Drosophila melanogaster; 4 H,100%
same,mortality at 5 ppm,Drosophila melanogaster; 6 H,100%
same,mortality at 50 ppm,Drosophila melanogaster; 6 H,100%
same,mortality at 500 ppm,Drosophila melanogaster; 6 H,100%
same,mortality at 500 ppm,Musca domestica larvae; 48 H,37%
same,mortality at 5000 ppm,Musca domestica larvae; 48 H,64%
same,mortality at 500 ppm,"Musca domestica larvae; 192 h, 8 Days",63%
same,mortality at 5000 ppm,"Musca domestica larvae; 192 h, 8 Days",92%
same,mortality at 1 µg/mL,[1]; 0.001 g/l,81.8%
same,mortality at 10 µg/mL,[1]; 0.010 g/l,91.6%
same,mortality at 100 µg/mL,[1]; 0.1 g/l,100%
same,mortality at 500 ppm,Musca domestica; 1 H,91%
same,mortality at 2500 ppm,Musca domestica; 1 H,100%
same,mortality at 5000 ppm,Musca domestica; 1 H,100%
same,mortality at 500 ppm,Musca domestica; 24 H,94%
same,mortality at 2500 ppm,Musca domestica; 24 H,100%
same,mortality at 5000 ppm,Musca domestica; 24 H,100%
same,mortality at 312.5 ppm,Blattella germanica; 24 H,65%
same,mortality at 625 ppm,"Blattella germanica; 24 H, 625 ppm",100%
same,mortality at 1250 ppm,"Blattella germanica; 24 H, 1250 ppm",100%
same,mortality at 312.5 ppm,Blattella germanica; 48 H,70%
same,mortality at 625 ppm,"Blattella germanica; 48 H, 625 ppm",100%
same,mortality at 1250 ppm,"Blattella germanica; 48 H, 1250 ppm",100%
same,mortality at 625 ppm,Blattella germanica; 120 h,30%
same,mortality at 1250 ppm,Blattella germanica; 120 h,100%
same,mortality at 50 ppm,Sitophilus granarius; 4 H,0%
same,mortality at 500 ppm,Sitophilus granarius; 4 H,100%
same,mortality at 5000 ppm,Sitophilus granarius; 4 H,100%
same,mortality at 50 ppm,Sitophilus granarius; 24 H,0%
same,mortality at 500 ppm,Sitophilus granarius; 24 H,100%
same,mortality at 5000 ppm,Sitophilus granarius; 24 H,100%
same,mortality at 50 ppm,"Sitophilus granarius; 120 h, 5 Days",0%
same,mortality at 500 ppm,"Sitophilus granarius; 120 h, 5 Days",100%
same,mortality at 5000 ppm,"Sitophilus granarius; 120 h, 5 Days",100%
same,mortality at 62.5 ppm,"Spodoptera littoralis; 1 H, 62.5 ppm, ingestion",0%
same,mortality at 125 ppm,"Spodoptera littoralis; 1 H, 125 ppm, ingestion",0%
same,mortality at 250 ppm,"Spodoptera littoralis; 1 H, 250 ppm, ingestion",0%
same,mortality at 62.5 ppm,"Spodoptera littoralis; 48 H, 62.5 ppm, ingestion",80%
same,mortality at 125 ppm,"Spodoptera littoralis; 48 H, 125 ppm, ingestion",100%
same,mortality at 250 ppm,"Spodoptera littoralis; 48 H, 250 ppm, ingestion",100%
same,mortality at 62.5 ppm,Spodoptera littoralis; 24 h,60%
same,mortality at 125 ppm,Spodoptera littoralis; 24 h,100%
same,mortality at 250 ppm,Spodoptera littoralis; 24 h,90%
